The source made the active and inactive calls. No rule for the calls is given here.
Tested on: CCRIS mutagenicity, Ames/micronucleus/aberration tests
Assay: CCRIS mutagenicity studies
[1] = Test System: AMES SALMONELLA TYPHIMURIUM, Strain/Indicator: TA98, Metabolic Activation: NONE, Method: STANDARD PLATE
[2] = Test System: AMES SALMONELLA TYPHIMURIUM, Strain/Indicator: TA100, Metabolic Activation: NONE, Method: STANDARD PLATE
[3] = Test System: AMES SALMONELLA TYPHIMURIUM, Strain/Indicator: TA1535, Metabolic Activation: NONE, Method: STANDARD PLATE

Measured: mutagenic call

Nc1nc(N)nc(-c2ccccc2)n1
inactive: Test System: AMES SALMONELLA TYPHIMURIUM, Strain/Indicator: TA98, Metabolic Activation: NONE, Method: PREINCUBATION inactive; negative | Test System: AMES SALMONELLA TYPHIMURIUM, Strain/Indicator: TA98, Metabolic Activation: RAT, LIVER, S-9, PHENOBARBITAL AND BETA-NAPHTHOFLAVONE, Method: PREINCUBATION inactive; negative | Test System: AMES SALMONELLA TYPHIMURIUM, Strain/Indicator: TA100, Metabolic Activation: NONE, Method: PREINCUBATION inactive; negative | Test System: AMES SALMONELLA TYPHIMURIUM, Strain/Indicator: TA100, Metabolic Activation: RAT, LIVER, S-9, PHENOBARBITAL AND BETA-NAPHTHOFLAVONE, Method: PREINCUBATION inactive; negative | Test System: AMES SALMONELLA TYPHIMURIUM, Strain/Indicator: TA102, Metabolic Activation: NONE, Method: PREINCUBATION inactive; negative | Test System: AMES SALMONELLA TYPHIMURIUM, Strain/Indicator: TA102, Metabolic Activation: RAT, LIVER, S-9, PHENOBARBITAL AND BETA-NAPHTHOFLAVONE, Method: PREINCUBATION inactive; negative | Test System: AMES SALMONELLA TYPHIMURIUM, Strain/Indicator: TA104, Metabolic Activation: NONE, Method: PREINCUBATION inactive; negative | Test System: AMES SALMONELLA TYPHIMURIUM, Strain/Indicator: TA104, Metabolic Activation: RAT, LIVER, S-9, PHENOBARBITAL AND BETA-NAPHTHOFLAVONE, Method: PREINCUBATION inactive; negative | Test System: AMES SALMONELLA TYPHIMURIUM, Strain/Indicator: TA1535, Metabolic Activation: NONE, Method: PREINCUBATION inactive; negative | Test System: AMES SALMONELLA TYPHIMURIUM, Strain/Indicator: TA1535, Metabolic Activation: RAT, LIVER, S-9, PHENOBARBITAL AND BETA-NAPHTHOFLAVONE, Method: PREINCUBATION inactive; negative | Test System: AMES SALMONELLA TYPHIMURIUM, Strain/Indicator: TA1537, Metabolic Activation: NONE, Method: PREINCUBATION inactive; negative | Test System: AMES SALMONELLA TYPHIMURIUM, Strain/Indicator: TA1537, Metabolic Activation: RAT, LIVER, S-9, SODIUM PHENOBARBITAL AND 5,6-BENZOFLAVONE, Method: PREINCUBATION inactive; negative | Test System: E. COLI, Strain/Indicator: WP2UVRA/PKM101, Metabolic Activation: NONE, Method: PREINCUBATION inactive; negative | Test System: E. COLI, Strain/Indicator: WP2UVRA/PKM101, Metabolic Activation: RAT, LIVER, S-9, SODIUM PHENOBARBITAL AND 5,6-BENZOFLAVONE, Method: PREINCUBATION inactive; negative | Test System: E. COLI, Strain/Indicator: WP2UVRA, Metabolic Activation: NONE, Method: PREINCUBATION inactive; negative | Test System: E. COLI, Strain/Indicator: WP2UVRA, Metabolic Activation: RAT, LIVER, S-9, PHENOBARBITAL AND BETA-NAPHTHOFLAVONE, Method: PREINCUBATION inactive; negative

CC[C@H](c1ccc(O)cc1)[C@@H](CC)c1ccc(O)cc1
active: End Point: IN VITRO CHROMOSOMAL ABERRATIONS, Test System: CHINESE HAMSTER CELL DON (22;XY), Metabolic Activation: NONE active; positive (ploidy changes)
inactive: [1] inactive; negative | Test System: AMES SALMONELLA TYPHIMURIUM, Strain/Indicator: TA98, Metabolic Activation: RAT, LIVER, S-9, Method: STANDARD PLATE inactive; negative | [2] inactive; negative | Test System: AMES SALMONELLA TYPHIMURIUM, Strain/Indicator: TA100, Metabolic Activation: RAT, LIVER, S-9, Method: STANDARD PLATE inactive; negative | [3] inactive; negative; toxicity at 50 ug/plate | Test System: AMES SALMONELLA TYPHIMURIUM, Strain/Indicator: TA1535, Metabolic Activation: RAT, LIVER, S-9, Method: STANDARD PLATE inactive; negative; toxicity at 100 ug/plate | Test System: AMES SALMONELLA TYPHIMURIUM, Strain/Indicator: TA1537, Metabolic Activation: NONE, Method: STANDARD PLATE inactive; negative; toxicity at 100 ug/plate | Test System: AMES SALMONELLA TYPHIMURIUM, Strain/Indicator: TA1537, Metabolic Activation: RAT, LIVER, S-9, Method: STANDARD PLATE inactive; negative | Test System: AMES SALMONELLA TYPHIMURIUM, Strain/Indicator: TA1538, Metabolic Activation: NONE, Method: STANDARD PLATE inactive; negative | Test System: AMES SALMONELLA TYPHIMURIUM, Strain/Indicator: TA1538, Metabolic Activation: RAT, LIVER, S-9, Method: STANDARD PLATE inactive; negative; toxicity at 100 ug/plate | Test System: UDS RAT HEPATOCYTES, Strain/Indicator: THY INCORP (18-20 HR), Metabolic Activation: NONE, Method: LIQUID SCINTILLATION COUNTING inactive; negative

C1OC1C1CO1 (centres undefined)
active: End Point: IN VITRO CHROMOSOMAL ABERRATIONS, Test System: HUMAN PERIPHERAL LYMPHOCYTES, Metabolic Activation: NONE, Method: FISH (DUAL COLOR FOR CHROMOSOMES 7, 8, 12 AND X) active; positive (hyperdiploidy of chromosomes 12 and x) | End Point: IN VITRO MICRONUCLEUS, Test System: HUMAN PERIPHERAL LYMPHOCYTES, Metabolic Activation: NONE active; positive | [1] active; positive | [2] active; positive | Test System: AMES SALMONELLA TYPHIMURIUM, Strain/Indicator: TA100, Metabolic Activation: RAT, LIVER, S-9, AROCLOR 1254, Method: STANDARD PLATE active; positive | Test System: AMES SALMONELLA TYPHIMURIUM, Strain/Indicator: TA102, Metabolic Activation: NONE, Method: STANDARD PLATE active; positive | [3] active; positive | Test System: CHINESE HAMSTER V-79, Strain/Indicator: V-79/6-THIOGUANINE, Metabolic Activation: NONE, Method: FLASK ASSAY active; positive | Test System: UDS MOUSE EPIDERMIS IN VIVO/IN VITRO, Strain/Indicator: HOS:HR-1/THYMIDINE INCORPORATION, Metabolic Activation: NONE, Method: LIQUID SCINTILLATION active; positive
inactive: Test System: AMES SALMONELLA TYPHIMURIUM, Strain/Indicator: TA7004, Metabolic Activation: NONE, Method: STANDARD PLATE inactive; negative | Test System: AMES SALMONELLA TYPHIMURIUM, Strain/Indicator: TA7005, Metabolic Activation: NONE, Method: STANDARD PLATE inactive; negative
